Source: patent publication US6150412A, “Catechol derivatives” (Orion-yhtyma Oy, priority 1995, dated 2000)
Where two headings read alike, the source gives them in different places.

Tests used:
S-COMT enzyme = molecular target: T1, S-COMT enzyme (Homo sapiens, UniProt P21964); assay: Determination of IC50 values, COMT inhibition (dopamine methylation, HPLC); type: biochemical; details: S-COMT enzyme (about 30 nM), 0.05 mM AdoMet, 3 mM dopamine, 5 min preincubation, 15 min at 37° C., pH 7.4
T1 sequence (P21964 1-221 isoform P21964-2): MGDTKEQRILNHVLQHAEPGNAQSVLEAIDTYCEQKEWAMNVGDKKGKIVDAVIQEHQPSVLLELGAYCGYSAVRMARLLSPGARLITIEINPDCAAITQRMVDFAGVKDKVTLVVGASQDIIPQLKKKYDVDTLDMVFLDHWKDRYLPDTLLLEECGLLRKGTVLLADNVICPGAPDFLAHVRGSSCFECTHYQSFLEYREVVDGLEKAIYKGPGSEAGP
Method: The studied inhibitors were first dissolved into 0.1 M NaOH solution and then diluted with distilled water to 0.5 mM inhibitor concentration. From this stock solution the inhibitor concentrations were adjusted by diluting the desired amounts of stock solution with 0.05 M phosphate buffer, pH 7.4. The studied sample solutions were prepared into the Eppendorf tubes. The final concentrations of the studied samples were; -100 mM phosphate buffer, 5 mM MgCl2, 0.05 mM AdoMet, S-COMT enzyme (about 30 nM) and the inhibitor.
The samples were mixed with Vortex, and incubated for 5 min at 37° C. The reactions were initiated with 3 mM dopamine and carried on for 15 min at 37° C. The reactions were stopped with 4 M perchloric acid and stabilized afterwards for 10 min in ice bath. The sample solutions were centrifuged for 10 min, and the methylated products, 3-methyldopamineand 4-methyidopamine, were analysed with HPLC.

[1] = Determination of plasma concentrations after oral dosing; type: in vivo; details: rat, male Wistar rats, orally dosed 10 mg/kg, read-out: Plasma c; for concentration at 0.5 h: t = 30 min; for concentration at 5 h: t = 5 h
Method: Male Wistar rats (220-280 g) were orally dosed (10 mg/kg) with test compounds. Control animals received the vehicle only. Blood samples were drawn from the tail artery 0.5 and 5 hours after the treatment and collected into pre-cooled Li-heparinized tubes. The plasma was separated by centrifugation (11000 g, 5 min) and stored at -80° C. until analysis.
The analytes were extracted from 200 μl of acidified plasma (100 μl of 1 M HCI) with 5 ml of ethyl acetate. The organic phase (4 ml) was evaporated to dryness under a stream of nitrogen at 40° C. The residue was redissolved in 200 μl of dimethylsulphoxide and 30 μl of it was analyzed by HPLC with amperometric detection. The electrode potential was +700 mV.

IC50 (S-COMT enzyme)	SMILES	further results
30 nM	O=Cc1cc(O)c(O)c(C=O)c1CCCCC(=O)O [Example 14, 5-(2.6-DIFORMYL-3,4-DIHYDROXYPHENYL)PENTANOIC ACID]	–
–	CC(=O)C(=Cc1cc(O)c(O)c([N+](=O)[O-])c1)C(C)=O [Comparison compound 2, 2[(3,4-dihydroxy-5-nitrophenyl)methylene]-2,4-pentanedione, reference compound]	concentration at 0.5 h ([1]; plasma): 530 ng/mL; concentration at 5 h ([1]; plasma): < 25 ng/mL
15 nM	N#Cc1cc(O)c(O)c(C#N)c1CCCCC(=O)O [Example 16, 5-(3,4-DIHYDROXY-2,6-DICYANOPHENYL)PENTANOIC ACID]	concentration at 0.5 h ([1]; plasma): 2000 ng/mL; concentration at 5 h ([1]; plasma): 150 ng/mL
20 nM	N#Cc1cc(O)c(O)c(C#N)c1CCC(=O)O [Example 17, 3-(2,6-DICYANO-3,4-DIHYDROXYPHENYL)PROPANOIC ACID]	–
60 nM	O=Cc1cc(O)c(O)c(C=O)c1CCC(=O)O [Example 15, 3-(2,6-DIFORMYL-3,4-DIHYDROXYPHENYL)PROPANOIC ACID]	–

SMILES	IC50 (S-COMT enzyme)	further results
O=C(O)CCc1c([N+](=O)[O-])cc(O)c(O)c1[N+](=O)[O-] [Example 11, 3-(3,4-DIHYDROXY-2,6-DINITROPHENYL)-PROPANOIC ACID]	30 nM	concentration at 0.5 h ([1]; in vivo): 2100 ng/mL; concentration at 5 h ([1]; in vivo): 490 ng/mL
O=C(O)CCCCc1c([N+](=O)[O-])cc(O)c(O)c1[N+](=O)[O-] [Example 13, 5-(3,4-DIHYDROXY-2,6-DINITROPHENYL)-PENTANOIC ACID]	20 nM	–
